Test results from patent publication US8003773B2, “Polynucleotides encoding MHC class I-restricted hTERT epitopes, analogues thereof or polyepitopes” (Institut Pasteur, priority 2005, dated 2011).

Tests used:
[1] = test system: hTERT peptide-pulsed target cells; test: Lv-hTERT immunization of HLA-B7 Tg mice, CTL response in chromium release assay; format: in vivo; details: Flap+ Lv-hTRT immunization, by restimulating peptide
Description: (§1) Immunization with TRIPLv-hTERT was performed as a single subcutaneously (at the base of the tail) injection of 1500 ng of TripLv-hTERT suspension or control vector.
(§2) 12 days later, hTERT peptide-specific T among splenocytes were detected by an ELISPOT assay (see below). Cytotoxicity assays were performed on the same immune splenocyte populations after in vitro stimulation with peptide-pulsed as described above.
Mice were considered as responsers when specific lysis ≧10% was observed.

[2] = test system: peptide loaded RMA-B7 target cells; test: Peptide immunization of HLA-*B0702 transgenic mice for CTL induction, 51Cr release assay; format: in vivo; details: for CTL response after peptide immunization: HLA-*B0702 transgenic mice; for R/T: responder (specific lysis ≧ 10%) versus tested mice / mice tested generating specific CTL: peptide immunization; for R/T: responder (specific lysis ≧ 10%) versus tested mice: six mice per peptide
Description: Female HLA-*B0702 transgenic mice at 8-10 weeks of age were injected subcutaneously (s.c.) at the base of the tail with 50 μg of individual HLA-B0702 restricted hTERT peptides supplemented with 140 μg of helper peptide co-emulsified in incomplete Freund's adjuvant (Difco, Detroit, Mich.). Ten days later, spleen cells of individual mouse were re-activated in vitro with relevant peptide in six wells plate. Effector CTL cells were tested in a standard 4-5 h ^51Cr-release assay, using relevant or negative control peptide-pulsed, HLA-*B0702 transfected RMA cells (RMA-B7). Mice were considered as responders, when specific lysis ≧10% was observed.
(§3) Cytotoxicity assays were performed by using standard 4-5 h ^51Cr release assay as previously described (Firat et al. J Gene Med 2002; 4:38-45). Specific lysis in % was calculated by subtracting non-specific lysis observed with the control peptide. Mice were considered as responsers when specific lysis ≧10% was observed.

[3] = test system: human tumour cell lines of different origins; test: Capacity of hTERT-specific CTLs from donors to lyse human tumour cell lines of different origins (summary); format: cell-based; details: CTL lines generated in vitro from healthy donors
Description: as §3
(§4) Human CTL from donors were obtained after in vitro re-activated PBMC for 4 weeks with hTERT peptide HLA-B0702 restricted as described previously (Hernandez et al. Proc Natl Acad Sci U.S.A. 2002; 99:12275-80). Briefly, Ficoll-purified human PBMCS were thawed and incubated (4×10^6/well) in 24-well plates in RPMI 1640, 1 mM sodium pyruvate, 100 IU/ml penicillin, 100 μg/ml streptomycin, 10 mM HEPES, 5×10^-5 M 2-mercaptoethanol supplemented with heat inactivated 10% human serum (Institut Jacques Boy, Reims, France). They were stimulated with each hTERT peptide (10 μg/ml) and recombinant human IL-7 (20 ng/ml; R&D Systems) was added.
On day 7, lymphocytes were re-activated with peptide-pulsed γ-irradiated autologous PBMCs (50 Gy). The next day, 20 IU/ml human IL-2 (Roche, Mannheim, Germany) was added to the culture. CTL lines were re-activated weekly during four cycles. For some donors, CD8^+ T cells were purified after three round cycle, using CD8 microbeads (Miltenyi Biotec, Bergisch Gladbach, Germany.) according to manufacturer's recommendations and activated once before functional test. Cytolytic assays were performed 6 days after the last re-activation against various ^51Cr-labeled targets: T2-B7 pulsed with tested hTERT peptides or irrelevant peptide, or tumor cell lines.

[4] = test system: RMA-B7 targets loaded with relevant peptides; test: DNA immunization (hTERT) in HLA-*B0702 transgenic mice, peptide-specific CTL; format: in vivo; details: immunised with cDNA encoding hTERT; FIG. 2
Description: HLA-B7 Tg mice and one naïve mice (N) were immunized with 100 μg DNA encoding Htert. On day 14, spleen cells from each mouse were separately in vitro stimulated with different hTERT-derived peptides. Effector cells were essayed 6 days later against RMA-B7 targets loaded with relevant (▪) or control (□) peptides as described in the material and methods. Percentage of lysis at a 60/1 ratio are shown (results from two independent experiments).
The LvCMV-hTERT plasmid vector encoding the hTERT gene under the control of CMV promotor was purified on plasmid Giga kit columns under endotoxin-free conditions (Qiagen). Anesthetized HLA-*B0702 Transgenic mice were injected with said plasmid (50 μg each side) into regenerating tibialis anterior muscles. 14 days after, spleen cells of individual mouse were re-activated in vitro with peptide-pulsed (10 μg/ml), syngenic γ-irradiated (50 Gy) LPS-lymphoblast in complete medium, supplemented with 10% supernatant from Con A-activated rat spleens cells. Cytotoxicity assays were performed 6 days as described.
as §3

T2-B7 cells = test: Induction of primary CTL responses from healthy donors' PBMC by hTERT peptides; format: cell-based, human; details: HLA-B0702 healthy donors, in vitro immunization; FIG. 3
Text: T-lymphocyte cells from HLA-*B0702^+ healthy donors were activated with each of the six hTERT peptide-pulsed autologous PBMC as detailed in materials and Method. After four rounds of weekly stimulation, effector cells, pulsed with relevant (▪) or control (□) peptides, were essayed for lytic activity against ^51Cr-labeled T2-B7 cells. Percentage of lysis at a 20/1 effector-target ratio is shown. Results from 8 out of 10 donors are presented (d1 to d8).
as §4
On day 7, lymphocytes were re-activated with peptide-pulsed γ-irradiated autologous PBMCs (50 Gy). The next day, 20 IU/ml human IL-2 (Roche, Mannheim, Germany) was added to the culture. CTL lines were re-activated weekly during four cycles. […]

[5] = test system: hTERT peptide-pulsed target cells; test: Lv-hTERT immunization of HHD mice (HLA-A2.1), CTL response in chromium release assay; format: in vivo
Description: as §1, §2, §3

Substance | R/T [1] | CTL response after peptide immunization [2] | R/T: responder (specific lysis ≧ 10%) versus tested mice [2] | tumor cell recognition by CTL lines specific for the peptide [3] | mice tested generating specific CTL [2] | mice with hTERT peptide-specific CTLs induced [4] | donors with peptide-specific CTL responses (T2-B7 cells) | CTL responses specific for HLA-A2.1 restricted epitopes ([5]; HHD mice immunized with Lv-hTERT) | R/T ([5]; HHD mice, Flap+ Lv-hTRT immunization, by restimulating peptide)
APRCRAVRSL [p4] | 6/8 | strong CTL response in all mice tested | 6/6 | do not lyse all the type of tested tumors | – | – | – | – | –
APSFRQVSCL [p68] | 4/8 | strong CTL response in all mice tested | 6/6 | only recognize the T1-B7 targets | – | – | – | – | –
MPRAPRCRA [p1] | 4/8 | – | 4/6 | only recognize the T1-B7 targets | – | – | – | – | –
RPAEEATSL [p277] | 5/8 | moderate specific CTL | 3/6 | recognize renal cancer (293 UT) but neither melanoma nor lymphoid tumor cells | 50 % of mice tested | – | – | – | –
RPSFLLSSL [p342] | 4/8 | moderate specific CTL | 3/6 | recognize only melanoma cells (LB 34 and KU 268 target) | 50 % of mice tested | about 15 % of mice | 20 % of donors | – | –
RPSLTGARRL [p351] | 5/8 | – | 4/6 | recognize the majority of tumor cell lines tested | – | – | – | – | –
p540: HLA-A2.1-restricted hTERT-derived peptide, epitope previously classified as dominant (ILAKFLHWL; UniProt O14746 540-548, looked up, fragment) | – | – | – | – | – | – | – | potent CTL responses | 2/6
